According to US20090123555A1, “Stimulateable Polymer Particles Exhibiting Reactive Functions, Method for the Production and the Use Thereof” (CENTRE NATIONAL DE LA RECHER CHE SCIENTIFIQUE, priority 2004, published 2009):

Test: Release of the active ingredient from the particle by lowering of the pH, followed by UV-visible spectrometry
Assay type: physicochemical
Description: Once the particle was synthesised we verified by UV-visible spectrometry the possibility of releasing the medicament by simple lowering of the pH.

## COc1ccc2c(c1)c(CC(=O)O)c(C)n2C(=O)c1ccc(Cl)cc1 [indomethacin]
Lowering of the pH, release from the particle
  release of the medicament by simple lowering of the pH: progressive and controlled release
pH equal to 3, in 48 hours, indomethacin covalently bonded inside the particle (NB-PCL-POE-OMe stabilised latex)
  indomethacin salted out (released) from the particle: more than 85%
